# Data reported in US11649238B2, “Substituted pyrazolo[1,5-a]pyrimidines as PI4K inhibitors” (GLAXOSMITHKLINE INTELLECTUAL PROPERTY DEVELOPMENT LIMITED, priority 2018, dated 2023).
# How the values were obtained:
# [1] = biological target: T1, human PI4KIII-beta 13-828 (D316-330) (Homo sapiens, UniProt Q9UBF8); test: PI4 KB Activity Assay (ADP-GLO Kinase assay); format: biochemical; conditions: 1 mM ATP, 60 μM phosphatidylinositol, 3 hours at room temperature; read-out: mean pIC50 (converted)
# T1 construct: human PI4KIII-beta 13-828 (D316-330)
# T1 sequence (Q9UBF8 1-801 isoform Q9UBF8-2): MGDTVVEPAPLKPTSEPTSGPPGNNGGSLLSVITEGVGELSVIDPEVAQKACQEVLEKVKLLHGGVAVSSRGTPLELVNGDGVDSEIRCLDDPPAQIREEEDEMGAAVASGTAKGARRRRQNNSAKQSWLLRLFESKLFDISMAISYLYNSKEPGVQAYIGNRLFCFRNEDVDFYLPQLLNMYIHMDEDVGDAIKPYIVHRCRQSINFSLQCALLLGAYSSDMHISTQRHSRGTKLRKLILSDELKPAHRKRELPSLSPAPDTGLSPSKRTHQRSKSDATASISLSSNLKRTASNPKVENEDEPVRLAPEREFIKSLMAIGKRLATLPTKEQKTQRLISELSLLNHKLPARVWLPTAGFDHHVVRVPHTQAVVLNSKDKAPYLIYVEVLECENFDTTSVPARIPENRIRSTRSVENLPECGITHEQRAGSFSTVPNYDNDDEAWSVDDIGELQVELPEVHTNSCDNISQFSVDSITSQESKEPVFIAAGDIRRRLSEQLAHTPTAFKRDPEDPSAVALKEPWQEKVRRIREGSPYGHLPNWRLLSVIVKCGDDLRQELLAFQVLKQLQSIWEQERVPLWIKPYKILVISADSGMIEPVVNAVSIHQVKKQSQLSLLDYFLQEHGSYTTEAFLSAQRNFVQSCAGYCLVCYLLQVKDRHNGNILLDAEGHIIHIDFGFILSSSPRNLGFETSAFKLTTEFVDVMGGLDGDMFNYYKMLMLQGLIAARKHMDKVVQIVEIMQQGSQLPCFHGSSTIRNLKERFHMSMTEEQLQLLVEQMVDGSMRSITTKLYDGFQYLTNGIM
# Procedure: The in vitro inhibition of human PI4KIII-beta 13-828 (D316-330) activity was determined by using the ADP-GLO Kinase assay kit from Promega. Inhibitors were dissolved in 100% DMSO at a concentration of 1 mM. Dilutions were prepared in 100% DMSO using a 1 in 3 serial step dilution. A 60 nL stamp from an 11-point titration was transferred to a white low volume 384 well Greiner assay plate ensuring a final DMSO concentration of 1% across the plate and a top final concentration of inhibitor of 10 μM. The PI4KIII-beta assay contained 25 mM Hepes pH 7.5 (NaOH), 10 mM MgCl2, 0.5 mM EGTA, 0.1% Triton X-100, 2 mM TCEP, and 0.1 mg/ml BSA, 1 mM ATP, 60 μM phosphatidylinositol, and 1.5 nM human PI4K-beta 13-828 (D316-330) in a total volume of 6 μL. The assay was initiated with the addition of enzyme, covered, and incubated at room temperature for 3 hours. The assays were stopped with the addition of 6 μl ADP-GLO Reagent containing 0.1% CHAPS to deplete the unconsumed ATP. The plates were incubated at room temperature for 60 min and then 12 μl of the Kinase Detection Reagent containing 0.1% CHAPS was added to convert ADP to ATP and introduce luciferase and luciferin. After 40 min incubation at room temperature the luminescent signal was read on a BMG Labtech PHERAstar FS with the following settings; Gain 3600, Focal height 13.7 mm, measurement interval time 1 s, Settling time 0.2 s. The inhibitory effect of the PI4K-beta activity of the compounds was evaluated by the IC50 of the response relative to the high, no compound, and low, no enzyme, controls by fitting to the four parameter dose response question.
# [2] = test system: human rhinovirus Type A Strain 16 (HRVA16) in HeLa Ohio cells; test: Cytopathic Effect (CPE) Assay, ATP-depletion in infected HeLa Ohio cells; format: cell-based; conditions: Human rhinovirus sp., HRVA16, HeLa, 48 h, HRVA16 at MOI of 1, 33° C. for 2 days, CellTiter-Glo, read-out: mean pIC50 (converted)
# Procedure: c) Cytopathic Effect (CPE) Assay Protocol
# The in vitro inhibition of PI4 KB activity was determined by analysis of the inhibition of ATP-depletion in HeLa Ohio cells in response to infection with human rhinovirus Type A Strain 16 (HRVA16). ATP levels were determined using CellTiter-GLO reagent from Promega. Compounds that inhibit PI4 KB are also potent inhibitors of human rhinoviruses and are able to protect HeLa Ohio cells from CPE induced by viral infection and replication. Protected cells remain viable following viral infection and therefore have greater ATP levels.
# Compounds were dissolved in 100% DMSO to a concentration of 3 mM and subsequent dilutions were prepared in 100% DMSO using a 1:3 serial step dilution. A 0.5 μL stamp from an 10-point titration was transferred to a white 96 well Greiner tissue culture flat bottom plate (655083). A 0.5 μL stamp of 100% DMSO was stamped into columns 11 and 12 of the plate, ensuring a final assay DMSO concentration of 0.33% across the plate and a compound top final assay concentration of 10 μM.
# HeLa Ohio cells were cultured at 37° C., 5% CO2 in media (DMEM supplemented with 10% Australian origin foetal bovine serum and 2 mM glutamax). Cells were passaged when confluency reached >80%. For the assay, cells were grown to 80-90% confluency before detachment.
# Cells were detached for the assay by washing with PBS and detached using 3 mL TrypLE Express for […] at 37° C. Detached cells were mixed with 7 mL of media and centrifuged at 300 g for 5 min. The cell pellet was resuspended in 50 mL media and counted on a Beckman Coulter ViCell. Cells were diluted to 6.6×10^4 cells/mL and some of the cell volume was removed into a new tube to be used as a column 12 control. HRVA16 stock was added to the remaining cell suspension at the appropriate dilution for the virus stock to achieve an MOI of 1.
# 150 μL of the cell+virus suspension was added per well to columns 1-11 using a Multidrop Combi. 150 μL of the separate cell suspension was added per well to columns 12 using a multichannel pipette. Assay plates were sealed and incubated at 33° C., 5% CO2 for 2 days. After 2 days, assay plates were removed from the incubator and allowed to equilibrate to room temperature. 60 μL of CellTiter-Glo reagent was added to all wells using a Thermo Scientific Multidrop Combi. Plates were incubated at room temperature for 20 min before reading on an a Perkin Elmer Envision (Settings: Gripper height 2.5, Fixed measurement height (mm) 6.5, Distance between plate and detector 0, Measurement time (s) 0.1, Glow (ct2) correction factor (0%)).
# The inhibitory effect of the compounds on the PI4 KB activity was evaluated by the IC50 of the response relative to the high (no virus, column 12) and low (virus+no inhibitor, column 11) controls by fitting to a four parameter dose response equation.
# [3] = intranasal administration, cited from earlier work; for accumulation of compound in lung tissue: rat model
# [4] = Spleen Concentration Assay; format: in vivo; conditions: male, Wistar Han, rat, intravenous, 1 mg/kg, intravenous infusion 1 mg/kg over 1 h, single male Wistar Han rat, 12 hours after the start of dosing
# Procedure: e) Spleen Concentration Assay Compounds 17, 18, 19, 22 and 23 were tested in this spleen accumulation assay. Compounds were administered intravenously to rats to determine what the level of the compound in the spleen would be if all of the inhaled dose was absorbed (either orally or through the lungs) and systemic circulation was exposed to the full dose. Compounds 17, 19, 22 and 23 were formulated in 2% DMSO in Kleptose (aq, 10% w/v). Compound 18 was formulated in a 5:45:50 ratio of DMSO:PEG200:water. Formulations were administered as intravenous infusions (1 mg/kg over 1 h) to a single male, Wistar Han rat. 12 hours after the start of dosing, rats were euthanised and spleens were collected. Approximately 0.5 g samples of spleen were taken and homogenised in 4 mL water. 100 μL of the resulting homogenates were prepared by protein precipitation with 300 μL of acetonitrile containing an internal standard and assayed (along with calibration standards prepared in the same manner) by reversed-phase liquid chromatography-mass spectrometry, using a heated electrospray source and operated in the positive ion multiple reaction monitoring mode. The liquid chromatography column used was a Waters Cortecs C18 2.7 μm particle size, 50×2.1 mm column at 60° C., and the mobile phase, operated as a gradient, utilised (A) 0.1% formic acid (aq) and (B) 0.1% formic acid in acetonitrile, operated at a flow rate of 1 mL/min.
smiles,measurement,setting,value
"COc1ccc(-c2c(C)nn3c(NCc4cccc(-c5nccn5C)c4)cc(C(C)(C)O)nc23)cc1C(=O)N(C)CCCO [Compound 32, 5-(5-(2-hydroxypropan-2-yl)-2-methyl-7-((3-(1-methyl-1H-imidazol-2-yl)benzyl)amino)pyrazolo[1,5-a]pyrimidin-3-yl)-N-(3-hydroxypropyl)-2-methoxy-N-methylbenzamide]",IC50,[1],≤ 3.98 nM
same,IC50,[2],≤ 25.1 nM
"COc1ccc(-c2c(C)nn3c(NCc4cccc(-c5nccn5C)c4)cc(C(C)O)nc23)cc1S(=O)(=O)CCO (single isomer, unassigned) [Compound 71, 2-((5-(5-(1-Hydroxyethyl)-2-methyl-7-((3-(1-methyl-1H-imidazol-2-yl)benzyl)amino)pyrazolo[1,5-a]pyrimidin-3-yl)-2-methoxyphenyl)sulfonyl)ethan-1-ol]",IC50,[1],≤ 3.98 nM
same,IC50,[2],≤ 25.1 nM
"Cc1ccc(-c2c(C)nn3c(NCc4cccc(-c5nccn5C)c4)cc(C(C)CO)nc23)cc1C(=O)N(C)CCCO (stereo not drawn) [Compound 54, 5-(5-(1-Hydroxypropan-2-yl)-2-methyl-7-((3-(1-methyl-1H-imidazol-2-yl)benzyl)amino)pyrazolo[1,5-a]pyrimidin-3-yl)-N-(3-hydroxypropyl)-N,2-dimethylbenzamide]",IC50,[1],≤ 3.98 nM
same,IC50,[2],≤ 25.1 nM
COc1ccc(-c2c(C)nn3c(NCc4cccc(-c5nccn5C)c4)cc(C(C)(C)O)nc23)cc1C(=O)N(C)CCO [Compound 26],IC50,[1],≤ 3.98 nM
same,IC50,[2],≤ 25.1 nM
"CCC(O)c1cc(NCc2cccc(-c3nccn3C)c2)n2nc(C)c(-c3ccc(OC)c(C(=O)N(C)C4CCOCC4)c3)c2n1 (single isomer, unassigned) [Compound 77, 5-(5-(1-Hydroxypropyl)-2-methyl-7-((3-(1-methyl-1H-imidazol-2-yl)benzyl)amino)pyrazolo[1,5-a]pyrimidin-3-yl)-2-methoxy-N-methyl-N-(tetrahydro-2H-pyran-4-yl)benzamide]",IC50,[1],≤ 3.98 nM
same,IC50,[2],≤ 25.1 nM
COc1ccc(-c2c(C)nn3c(NCc4cccc(-c5nccn5C)c4)cc(C(C)(C)O)nc23)cc1C(=O)N1CCC(C)(O)C1 (stereo not drawn) [Compound 27],IC50,[1],≤ 3.98 nM
same,IC50,[2],≤ 25.1 nM
"COc1ccc(-c2c(C)nn3c(NCc4cccc(-c5nccn5C)c4)cc(CC4CCOCC4)nc23)cc1S(=O)(=O)CCO [Compound 85, 2-((2-Methoxy-5-(2-methyl-7-((3-(1-methyl-1H-imidazol-2-yl)benzyl)amino)-5-((tetrahydro-2H-pyran-4-yl)methyl)pyrazolo[1,5-a]pyrimidin-3-yl)phenyl)sulfonyl)ethan-1-ol]",IC50,[1],≤ 3.98 nM
same,IC50,[2],≤ 25.1 nM
"CCN(CCO)C(=O)c1cc(-c2c(C)nn3c(NCc4cccc(-c5nccn5C)c4)cc(C(C)(C)O)nc23)ccc1C [Compound 38, N-ethyl-N-(2-hydroxyethyl)-5-(5-(2-hydroxypropan-2-yl)-2-methyl-7-((3-(1-methyl-1H-imidazol-2-yl)benzyl)amino)pyrazolo[1,5-a]pyrimidin-3-yl)-2-methylbenzamide]",IC50,[1],≤ 3.98 nM
same,IC50,[2],≤ 25.1 nM
COc1ccc(-c2c(C)nn3c(NCc4cccc(-n5cccc5)c4)cc(OCCCN(C)C)nc23)cc1S(C)(=O)=O [GSK3180404A],accumulation of compound in lung tissue,[3],substantial accumulation of compound in lung tissue
"Cc1nn2c(NCc3cccc(-c4nccn4C)c3)cc(C(C)(C)O)nc2c1-c1cccc(C(=O)N(C)CCCO)c1 [Compound 87, 3-(5-(2-Hydroxypropan-2-yl)-2-methyl-7-((3-(1-methyl-1H-imidazol-2-yl)benzyl)amino)pyrazolo[1,5-a]pyrimidin-3-yl)-N-(3-hydroxypropyl)-N-methylbenzamide]",IC50,[1],≤ 3.98 nM
same,IC50,[2],≤ 25.1 nM
"COc1ccc(-c2c(C)nn3c(NCc4cccc(-c5nccn5C)c4)cc(C(C)O)nc23)cc1S(=O)(=O)CCO (stereo not drawn) [Compound 2, 2-((5-(5-(1-Hydroxyethyl)-2-methyl-7-((3-(1-methyl-1H-imidazol-2-yl)benzyl)amino)pyrazolo[1,5-a]pyrimidin-3-yl)-2-methoxyphenyl)sulfonyl)ethan-1-ol]",IC50,[1],≤ 3.98 nM
same,IC50,[2],≤ 25.1 nM
Cc1cc(NCc2cccc(-n3cccc3)c2)n2nc(C)c(-c3ccc(Cl)c(C(=O)N(C)CCN(C)C)c3)c2n1 [GSK3159043A],accumulation of compound in lung tissue,[3],substantial accumulation of compound in lung tissue
same,histological findings following IN dose,[3]; rat nasal cavity and lung,ulceration in the rat nasal cavity and bronchial epithelial hyperplasia in the rat lung
COc1ccc(-c2c(C)nn3c(NCc4cccc(-c5nccn5C)c4)cc(C(C)(C)O)nc23)cc1C(=O)N(C)C [Compound 23],IC50,[1],≤ 3.98 nM
same,concentration at 12 h,[4],< 7 ng/g
Cc1ccc(-c2c(C)nn3c(NCc4cccc(-c5nccn5C)c4)cc(C(C)(C)O)nc23)cc1C(=O)NCCCO [Compound 60],IC50,[1],≤ 3.98 nM
same,IC50,[2],≤ 25.1 nM
COc1ccc(-c2c(C)nn3c(NCc4cccc(-c5nccn5C)c4)cc(C(O)C4CC4)nc23)cc1S(=O)(=O)CCO (stereo not drawn) [Compound 4],IC50,[1],≤ 3.98 nM
same,IC50,[2],≤ 25.1 nM
"Cc1ccc(-c2c(C)nn3c(NCc4cccc(-c5nccn5C)c4)cc(C4(O)CC4)nc23)cc1C(=O)N(C)CCCO [Compound 79, 5-(5-(1-Hydroxycyclopropyl)-2-methyl-7-((3-(1-methyl-1H-imidazol-2-yl)benzyl)amino)pyrazolo[1,5-a]pyrimidin-3-yl)-N-(3-hydroxypropyl)-N,2-dimethylbenzamide]",IC50,[1],≤ 3.98 nM
same,IC50,[2],≤ 25.1 nM
COc1ccc(-c2c(C)nn3c(NCc4cccc(-c5nccn5C)c4)cc(C(C)(C)O)nc23)cc1C(=O)N1CCCOCC1 [Compound 28],IC50,[1],≤ 3.98 nM
same,IC50,[2],≤ 25.1 nM
